Measurements as given in patent publication US9278954B2, “Pyrrolidine derivatives, pharmaceutical compositions and uses thereof” (Boehringer Ingelheim International GmbH, priority 2013, dated 2016).

target: human ACC2 (Homo sapiens (Human), UniProt O00763); assay: ACC2 assay (spectrophotometric 384 well assay, NADH-linked kinetic method); format: biochemical; settings: hACC2 construct lacking the 128 N-terminal amino acids; 25° C., 340 nm over 15 minutes
Procedure: Spectrophotometric 384 Well Assay
Malonyl CoA formation by acetyl CoA carboxylases is stoichometrically linked to the consumption of ATP. ACC2 activity is measured in a NADH-linked kinetic method measuring ADP generated during the ACC reaction using a coupled lactate dehydrogenase/pyruvate kinase reaction.
The protein is then expressed in insect cells using a baculoviral expression system. Protein purification is performed by anion exchange.
All compounds are dissolved in dimethyl sulfoxide (DMSO) to a concentration of 10 mM.
The enzymatic reaction is then started by addition of a mixture of NADH, acetyl
Coenzyme A (both […].) and ATP (500 uM f.c.). The decrease of the optical density (slope S) is then determined at 25° C. at a wavelength of 340 nm over 15 minutes in a spectrophotometric reader.
Each assay microtiter plate contains wells with vehicle instead of compound as controls for the non-inhibited enzyme (100% CTL; ‘HIGH’) and wells without acetyl-CoA as controls for non-specific NADH degradation (0% CTL; ‘LOW’).

Chain of human ACC2 (O00763 129-2458): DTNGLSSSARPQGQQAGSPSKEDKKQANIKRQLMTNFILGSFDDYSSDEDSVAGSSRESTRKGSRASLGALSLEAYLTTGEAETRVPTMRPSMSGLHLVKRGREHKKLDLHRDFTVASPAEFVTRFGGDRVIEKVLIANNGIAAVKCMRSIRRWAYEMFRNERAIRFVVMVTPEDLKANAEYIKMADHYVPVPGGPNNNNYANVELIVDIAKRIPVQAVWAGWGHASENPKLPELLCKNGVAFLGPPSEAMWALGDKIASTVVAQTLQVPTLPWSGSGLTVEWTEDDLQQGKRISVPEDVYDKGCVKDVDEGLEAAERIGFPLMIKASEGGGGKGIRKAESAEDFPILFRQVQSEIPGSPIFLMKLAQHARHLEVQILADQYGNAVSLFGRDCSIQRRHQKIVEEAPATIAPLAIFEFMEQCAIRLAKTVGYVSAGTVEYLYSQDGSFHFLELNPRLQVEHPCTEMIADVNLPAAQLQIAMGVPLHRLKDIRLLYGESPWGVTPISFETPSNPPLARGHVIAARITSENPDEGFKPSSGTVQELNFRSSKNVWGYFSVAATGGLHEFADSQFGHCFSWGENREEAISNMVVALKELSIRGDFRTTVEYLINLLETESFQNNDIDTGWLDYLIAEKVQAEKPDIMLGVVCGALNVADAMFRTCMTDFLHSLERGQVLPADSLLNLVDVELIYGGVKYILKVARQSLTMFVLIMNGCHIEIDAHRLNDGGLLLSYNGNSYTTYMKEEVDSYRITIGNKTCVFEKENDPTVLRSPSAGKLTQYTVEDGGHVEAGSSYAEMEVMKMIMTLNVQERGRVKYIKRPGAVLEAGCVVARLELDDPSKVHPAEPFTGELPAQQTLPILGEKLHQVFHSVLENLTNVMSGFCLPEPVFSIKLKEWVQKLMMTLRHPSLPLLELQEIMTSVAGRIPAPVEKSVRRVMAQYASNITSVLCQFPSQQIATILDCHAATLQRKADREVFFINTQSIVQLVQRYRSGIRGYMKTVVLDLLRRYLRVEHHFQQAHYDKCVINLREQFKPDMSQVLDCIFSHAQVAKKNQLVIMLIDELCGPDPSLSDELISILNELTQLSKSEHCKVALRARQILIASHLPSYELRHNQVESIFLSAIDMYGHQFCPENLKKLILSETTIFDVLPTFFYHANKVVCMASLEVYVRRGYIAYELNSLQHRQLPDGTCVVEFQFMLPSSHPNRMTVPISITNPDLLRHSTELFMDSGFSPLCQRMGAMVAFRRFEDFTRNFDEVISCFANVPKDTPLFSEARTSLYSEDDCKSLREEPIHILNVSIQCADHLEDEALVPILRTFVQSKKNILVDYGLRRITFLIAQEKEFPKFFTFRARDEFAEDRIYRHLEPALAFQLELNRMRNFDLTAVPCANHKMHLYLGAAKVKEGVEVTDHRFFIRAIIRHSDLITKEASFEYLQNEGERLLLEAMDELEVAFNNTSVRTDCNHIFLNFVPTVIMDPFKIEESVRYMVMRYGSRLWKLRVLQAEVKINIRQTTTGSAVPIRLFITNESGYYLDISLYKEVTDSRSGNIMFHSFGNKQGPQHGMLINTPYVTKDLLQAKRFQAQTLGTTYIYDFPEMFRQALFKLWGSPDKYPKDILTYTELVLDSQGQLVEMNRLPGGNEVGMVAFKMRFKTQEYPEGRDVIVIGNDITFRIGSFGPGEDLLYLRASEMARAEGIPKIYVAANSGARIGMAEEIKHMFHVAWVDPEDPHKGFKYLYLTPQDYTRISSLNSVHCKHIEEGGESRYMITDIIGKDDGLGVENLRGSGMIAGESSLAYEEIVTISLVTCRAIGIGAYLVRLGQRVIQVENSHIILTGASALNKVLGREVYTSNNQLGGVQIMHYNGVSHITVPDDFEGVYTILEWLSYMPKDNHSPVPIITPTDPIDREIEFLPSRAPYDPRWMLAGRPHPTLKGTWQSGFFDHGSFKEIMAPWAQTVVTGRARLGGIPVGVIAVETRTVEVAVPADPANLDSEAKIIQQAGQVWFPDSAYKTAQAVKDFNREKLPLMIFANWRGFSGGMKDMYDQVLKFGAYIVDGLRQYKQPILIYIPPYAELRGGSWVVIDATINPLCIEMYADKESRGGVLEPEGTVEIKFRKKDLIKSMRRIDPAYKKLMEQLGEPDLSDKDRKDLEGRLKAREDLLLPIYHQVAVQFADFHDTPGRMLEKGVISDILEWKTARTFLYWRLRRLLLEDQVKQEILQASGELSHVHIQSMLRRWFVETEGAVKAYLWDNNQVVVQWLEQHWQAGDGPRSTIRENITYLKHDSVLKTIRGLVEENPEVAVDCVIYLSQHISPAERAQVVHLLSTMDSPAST

Row | IC50 [nM] | Compound
1 | 101 | CCCNc1nccc(N2CC[C@@H](Oc3ccc(C(C)C(=O)NC4CC4C)cc3)C2)c1F (single isomer, unassigned) [Example 1.3]
2 | 118 | CCCNc1nccc(N2CC[C@@H](Oc3ccc(C(C)C(=O)NC4CC4C)cc3)C2)c1F (single isomer, unassigned) [Example 1.4]
3 | 61 | CCCNc1nccc(N2CC[C@@H](Oc3ccc(C(C)C(=O)NC4CC4)cc3)C2)c1F (some centres unmarked) [Example 1.2]
4 | 133 | CC(C(=O)NC1CC1)c1ccc(O[C@@H]2CCN(c3ncnc(OCC(C)(F)F)c3F)C2)cc1 (some centres unmarked) [Example 1.5]
5 | 170 | CC(C(=O)NC1CC1)c1ccc(O[C@@H]2CCN(c3nc(N(C)C)ncc3F)C2)cc1 (some centres unmarked) [Example 1.7]
6 | 179 | CC(C(=O)NC1CC1)c1ccc(O[C@@H]2CCN(c3ccc(OCC4CC4(F)F)cn3)C2)cc1 (some centres unmarked) [Example 1.8]
7 | 205 | CC(C(=O)NC1CC1C)c1ccc(O[C@@H]2CCN(c3ccc(OCC4CC4(F)F)cn3)C2)cc1 (some centres unmarked) [Example 1.10]
8 | 213 | CCCNc1nccc(N2CC[C@@H](Oc3ccc(C(C)C(=O)NCC)cc3)C2)c1F (some centres unmarked) [Example 1.11]
9 | 220 | CC(C(=O)NC1CC1C)c1ccc(O[C@@H]2CCN(c3ccc(OCC4CC4(F)F)cn3)C2)cc1 (some centres unmarked) [Example 1.12]
10 | 244 | CC(C(=O)NC1CC1C)c1ccc(O[C@@H]2CCN(c3ncnc(OCC(C)(F)F)c3F)C2)cc1 (some centres unmarked) [Example 1.14]
11 | 263 | CC(C(=O)NCC(F)F)c1ccc(O[C@@H]2CCN(c3ccc(OCC4CC4(F)F)cn3)C2)cc1 (some centres unmarked) [Example 1.15]
12 | 266 | C#CCNC(=O)C(C)c1ccc(O[C@@H]2CCN(c3ccnc(NCCC)c3F)C2)cc1 (some centres unmarked) [Example 1.16]
13 | 286 | C=C(C)CNC(=O)C(C)c1ccc(O[C@@H]2CCN(c3ccnc(NCCC)c3F)C2)cc1 (some centres unmarked) [Example 1.18]
14 | 296 | CCCNc1nccc(N2CC[C@@H](Oc3ccc(C(C)C(=O)NCCF)cc3)C2)c1F (some centres unmarked) [Example 1.19]
15 | 306 | C#CCNC(=O)C(C)c1ccc(O[C@@H]2CCN(c3ncnc(OCC(C)(C)O)c3Cl)C2)cc1 (some centres unmarked) [Example 1.20]
16 | 309 | CCCNc1nccc(N2CC[C@@H](Oc3ccc(C(C)C(=O)NCC(F)F)cc3)C2)c1F (some centres unmarked) [Example 1.21]
17 | 311 | CC(C(=O)NC1CC1C)c1ccc(O[C@@H]2CCN(c3ncnc(OCC(C)(F)F)c3F)C2)cc1 (some centres unmarked) [Example 1.22]
18 | 315 | C=C(C)CNC(=O)C(C)c1ccc(O[C@@H]2CCN(c3ncnc(OCC(C)(C)O)c3Cl)C2)cc1 (some centres unmarked) [Example 1.23]
19 | 319 | CCCNc1nccc(N2CC[C@@H](Oc3ccc(C(C)C(=O)NC(C)C)cc3)C2)c1F (some centres unmarked) [Example 1.24]
20 | 322 | C=CCNC(=O)C(C)c1ccc(O[C@@H]2CCN(c3ncnc(OCC(C)(C)O)c3Cl)C2)cc1 (some centres unmarked) [Example 1.25]
21 | 346 | CNC(=O)C(C)c1ccc(O[C@@H]2CCN(c3ccc(OCC4CC4(F)F)cn3)C2)cc1 (some centres unmarked) [Example 1.28]
22 | 367 | CCCNc1nccc(N2CC[C@@H](Oc3ccc(C(C)C(=O)N[C@H](C)CC)cc3)C2)c1F (some centres unmarked) [Example 1.29]
23 | 378 | CCNC(=O)C(C)c1ccc(O[C@@H]2CCN(c3ncnc(OCC(C)(F)F)c3F)C2)cc1 (some centres unmarked) [Example 1.30]
24 | 381 | C=CCNC(=O)C(C)c1ccc(O[C@@H]2CCN(c3ccc(OCC4CC4(F)F)cn3)C2)cc1 (some centres unmarked) [Example 1.31]

Row | IC50 [nM] | Compound
25 | 402 | CCCNC(=O)C(C)c1ccc(O[C@@H]2CCN(c3ccnc(NCCC)c3F)C2)cc1 (some centres unmarked) [Example 1.32]
26 | 410 | CCCNc1nccc(N2CC[C@@H](Oc3ccc(C(C)C(=O)Nc4cccnc4)cc3)C2)c1F (some centres unmarked) [Example 1.35]
27 | 418 | C=C(C)CNC(=O)C(C)c1ccc(O[C@@H]2CCN(c3ccc(OCC4CC4(F)F)cn3)C2)cc1 (some centres unmarked) [Example 1.37]
28 | 437 | CCCNC(=O)C(C)c1ccc(O[C@@H]2CCN(c3ncnc(OCC(C)(C)O)c3Cl)C2)cc1 (some centres unmarked) [Example 1.40]
29 | 438 | CCCNc1nccc(N2CC[C@@H](Oc3ccc(C(C)C(=O)NC4CCC4)cc3)C2)c1F (some centres unmarked) [Example 1.41]
30 | 441 | C#CCNC(=O)C(C)c1ccc(O[C@@H]2CCN(c3ncnc(OCC(C)(F)F)c3F)C2)cc1 (some centres unmarked) [Example 1.42]
31 | 443 | CC(C(=O)NCC(F)F)c1ccc(O[C@@H]2CCN(c3nc(N(C)C)ncc3F)C2)cc1 (some centres unmarked) [Example 1.43]
32 | 454 | C=C(C)CNC(=O)C(C)c1ccc(O[C@@H]2CCN(c3nc(N(C)C)ncc3F)C2)cc1 (some centres unmarked) [Example 1.44]
33 | 463 | C=CCNC(=O)C(C)c1ccc(O[C@@H]2CCN(c3ncnc(OCC(C)(F)F)c3F)C2)cc1 (some centres unmarked) [Example 1.45]
34 | 470 | CC(C(=O)NCC(F)F)c1ccc(O[C@@H]2CCN(c3ncnc(OCC(C)(F)F)c3F)C2)cc1 (some centres unmarked) [Example 1.46]
35 | 472 | CC[C@@H](C)NC(=O)C(C)c1ccc(O[C@@H]2CCN(c3ncnc(OCC(C)(C)O)c3Cl)C2)cc1 (some centres unmarked) [Example 1.47]
36 | 480 | CC(C(=O)Nc1cccnc1)c1ccc(O[C@@H]2CCN(c3ncnc(OCC(C)(F)F)c3F)C2)cc1 (some centres unmarked) [Example 1.48]
37 | 492 | CC(C)NC(=O)C(C)c1ccc(O[C@@H]2CCN(c3ncnc(OCC(C)(C)O)c3Cl)C2)cc1 (some centres unmarked) [Example 1.49]
38 | 501 | CC(C(=O)NC1CCC1)c1ccc(O[C@@H]2CCN(c3ncnc(OCC(C)(C)O)c3Cl)C2)cc1 (some centres unmarked) [Example 1.50]
39 | 512 | CC(C(=O)NCCF)c1ccc(O[C@@H]2CCN(c3nc(N(C)C)ncc3F)C2)cc1 (some centres unmarked) [Example 1.51]
40 | 533 | CCCNC(=O)C(C)c1ccc(O[C@@H]2CCN(c3ccc(OCC4CC4(F)F)cn3)C2)cc1 (some centres unmarked) [Example 1.52]
41 | 538 | C=C(C)CNC(=O)C(C)c1ccc(O[C@@H]2CCN(c3ncnc(OCC(C)(F)F)c3F)C2)cc1 (some centres unmarked) [Example 1.53]
42 | 547 | CC(C(=O)NCCF)c1ccc(O[C@@H]2CCN(c3ncnc(OCC(C)(C)O)c3Cl)C2)cc1 (some centres unmarked) [Example 1.54]
43 | 573 | CC(C(=O)NCCF)c1ccc(O[C@@H]2CCN(c3ncnc(OCC(C)(F)F)c3F)C2)cc1 (some centres unmarked) [Example 1.55]
44 | 579 | CNC(=O)C(C)c1ccc(O[C@@H]2CCN(c3nc(N(C)C)ncc3F)C2)cc1 (some centres unmarked) [Example 1.56]
45 | 591 | CC(C(=O)N[C@H](C)CO)c1ccc(O[C@@H]2CCN(c3ccc(OCC4CC4(F)F)cn3)C2)cc1 (some centres unmarked) [Example 1.57]
46 | 598 | CC[C@@H](C)NC(=O)C(C)c1ccc(O[C@@H]2CCN(c3ccc(OCC4CC4(F)F)cn3)C2)cc1 (some centres unmarked) [Example 1.58]
47 | 603 | CC[C@@H](C)NC(=O)C(C)c1ccc(O[C@@H]2CCN(c3ncnc(OCC(C)(F)F)c3F)C2)cc1 (some centres unmarked) [Example 1.59]

Row | Compound | IC50 [nM]
48 | CC(C(=O)NC1CC1C)c1ccc(O[C@@H]2CCN(c3nc(N(C)C)ncc3F)C2)cc1 (single isomer, unassigned) [6.2 isomer 1] | 86
49 | CC(C(=O)NC1CC1C)c1ccc(O[C@@H]2CCN(c3nc(N(C)C)ncc3F)C2)cc1 (single isomer, unassigned) [6.2 isomer 2] | 177
50 | CC(C(=O)NC1CC1C)c1ccc(O[C@@H]2CCN(c3nc(N(C)C)ncc3F)C2)cc1 (single isomer, unassigned) [6.2 isomer 3] | 219
51 | CC(C(=O)NC1CC1C)c1ccc(O[C@@H]2CCN(c3nc(N(C)C)ncc3F)C2)cc1 (single isomer, unassigned) [6.2 isomer 4] | 1480
52 | CCNC(=O)C(C)c1ccc(O[C@@H]2CCN(c3ncnc(OCC(C)(C)O)c3Cl)C2)cc1 (single isomer, unassigned) [6.3 isomer 1] | 95
53 | CCNC(=O)C(C)c1ccc(O[C@@H]2CCN(c3ncnc(OCC(C)(C)O)c3Cl)C2)cc1 (single isomer, unassigned) [6.3 isomer 2] | 1100
54 | CC(C(=O)NC1CC1C)c1ccc(O[C@@H]2CCN(c3ncnc(OCC(C)(C)O)c3Cl)C2)cc1 (single isomer, unassigned) [6.4 isomer 1] | 121
55 | CC(C(=O)NC1CC1C)c1ccc(O[C@@H]2CCN(c3ncnc(OCC(C)(C)O)c3Cl)C2)cc1 (single isomer, unassigned) [6.4 isomer 2] | 681
56 | CC(C(=O)NC1CC1C)c1ccc(O[C@@H]2CCN(c3ncnc(OCC(C)(C)O)c3Cl)C2)cc1 (single isomer, unassigned) [6.4 isomer 3] | 127
57 | CC(C(=O)NCC(F)F)c1ccc(O[C@@H]2CCN(c3ncnc(OCC(C)(C)O)c3Cl)C2)cc1 (single isomer, unassigned) [6.5 isomer 1] | 135
58 | CC(C(=O)NCC(F)F)c1ccc(O[C@@H]2CCN(c3ncnc(OCC(C)(C)O)c3Cl)C2)cc1 (single isomer, unassigned) [6.5 isomer 2] | 872
59 | CCNC(=O)C(C)c1ccc(O[C@@H]2CCN(c3nc(N(C)C)ncc3F)C2)cc1 (single isomer, unassigned) [6.6 isomer 1] | 126
60 | CC(C(=O)NC1CC1C)c1ccc(O[C@@H]2CCN(c3nc(N(C)C)ncc3F)C2)cc1 (some centres unmarked) [Example 1.9] | 195
61 | CC(C(=O)NC1CC1C)c1ccc(O[C@@H]2CCN(c3ncnc(OCC(C)(C)O)c3Cl)C2)cc1 (some centres unmarked) [Example 1.13] | 233
62 | CCNC(=O)C(C)c1ccc(O[C@@H]2CCN(c3ncnc(OCC(C)(C)O)c3Cl)C2)cc1 (some centres unmarked) [Example 1.17] | 272
63 | CC(C(=O)NC1CC1C)c1ccc(O[C@@H]2CCN(c3ncnc(OCC(C)(C)O)c3Cl)C2)cc1 (some centres unmarked) [Example 1.26] | 325
64 | CCNC(=O)C(C)c1ccc(O[C@@H]2CCN(c3nc(N(C)C)ncc3F)C2)cc1 (some centres unmarked) [Example 1.27] | 345
65 | CC(C(=O)NCC(F)F)c1ccc(O[C@@H]2CCN(c3ncnc(OCC(C)(C)O)c3Cl)C2)cc1 (some centres unmarked) [Example 1.36] | 413
